Active and inactive are the calls of the source. No cut-off for these calls is given here.
Legend:
[1] = molecular target: T1, LSD1/CoREST complex (Homo sapiens, UniProt O60341); assay: Binding affinity to human LSD1/CoREST assessed as dissociation constant by competitive fluorescence polarization assay; type: protein-complex assay
[2] = molecular target: T1, LSD1/CoREST complex; assay: Inhibition of human LSD1/CoREST using histone H3 peptide as substrate by fluorescence polarization assay; type: protein-complex assay
[3] = system: RD; assay: Antiproliferative activity against human RD cells assessed as inhibition of cell growth incubated for 24 hrs; type: functional, cell-based
[4] = system: RD; assay: Antiproliferative activity against human RD cells assessed as inhibition of cell growth incubated for 72 hrs; type: functional, cell-based
[5] = system: RD; assay: Antiproliferative activity against human RD cells assessed as inhibition of cell growth incubated for 144 hrs; type: functional, cell-based
[6] = system: SJRH30; assay: Antiproliferative activity against human Rh30 cells assessed as inhibition of cell growth incubated for 24 hrs; type: functional, cell-based; settings: SJRH30, 24 h
[7] = system: SJRH30; assay: Antiproliferative activity against human Rh30 cells assessed as inhibition of cell growth incubated for 72 hrs; type: functional, cell-based; settings: SJRH30, 72 h
[8] = system: SJRH30; assay: Antiproliferative activity against human Rh30 cells assessed as inhibition of cell growth incubated for 144 hrs; type: functional, cell-based; settings: SJRH30, 144 h
[9] = system: SJRH30; assay: Antiproliferative activity against human Rh30 cells assessed as reduction in live cells at 10 uM incubated for 24 hrs by calceinAM/propidium iodide staining based fluorescence microscopy; type: functional, cell-based
[10] = system: RD; assay: Antiproliferative activity against human RD cells assessed as reduction in live cells at 10 uM incubated for 72 hrs by calceinAM/propidium iodide staining based fluorescence microscopy; type: functional, cell-based
[11] = system: SJRH30; assay: Induction of apoptosis in human Rh30 cells assessed as increase in caspase 3/7 level at 10 uM incubated for 24 hrs; type: functional, cell-based
[12] = system: THP-1; assay: Antiproliferative activity against human THP-1 cells assessed as inhibition of cell growth incubated for 24 hrs by CellTiter-Glo luminescent cell viability assay; type: functional, cell-based; settings: THP-1, 24 h
[13] = system: THP-1; assay: Antiproliferative activity against human THP-1 cells assessed as inhibition of cell growth incubated for 72 hrs by CellTiter-Glo luminescent cell viability assay; type: functional, cell-based; settings: THP-1, 72 h
[14] = system: THP-1; assay: Antiproliferative activity against human THP-1 cells assessed as inhibition of cell growth incubated for 144 hrs by CellTiter-Glo luminescent cell viability assay; type: functional, cell-based; settings: THP-1, 144 h
[15] = system: MDA-MB-231; assay: Antiproliferative activity against human MDA-MB-231 cells assessed as inhibition of cell growth measured after 72 hrs by MTT assay; type: functional, cell-based; settings: MDA-MB-231, 72 h
[16] = system: SJRH30; assay: Antiproliferative activity against human Rh30 cells assessed as reduction in live cells at 3.5 uM incubated for 24 hrs by calceinAM/propidium iodide staining based fluorescence microscopy; type: functional, cell-based
[17] = system: RD; assay: Antiproliferative activity against human RD cells assessed as reduction in live cells at 3.5 uM incubated for 72 hrs by calceinAM/propidium iodide staining based fluorescence microscopy; type: functional, cell-based
[18] = system: SJRH30; assay: Induction of apoptosis in human Rh30 cells assessed as increase in caspase 3/7 level at 3.5 uM incubated for 24 hrs; type: functional, cell-based
[19] = molecular target: T2, N-lysine methyltransferase KMT5A (Homo sapiens) (UniProt Q9NQR1); assay: Inhibition of SETD8 (unknown origin) using [3H]SAM and HeLa nucleosomes as substrates at 100 uM incubated for 1 hr relative to control
T2 sequence (whole entry): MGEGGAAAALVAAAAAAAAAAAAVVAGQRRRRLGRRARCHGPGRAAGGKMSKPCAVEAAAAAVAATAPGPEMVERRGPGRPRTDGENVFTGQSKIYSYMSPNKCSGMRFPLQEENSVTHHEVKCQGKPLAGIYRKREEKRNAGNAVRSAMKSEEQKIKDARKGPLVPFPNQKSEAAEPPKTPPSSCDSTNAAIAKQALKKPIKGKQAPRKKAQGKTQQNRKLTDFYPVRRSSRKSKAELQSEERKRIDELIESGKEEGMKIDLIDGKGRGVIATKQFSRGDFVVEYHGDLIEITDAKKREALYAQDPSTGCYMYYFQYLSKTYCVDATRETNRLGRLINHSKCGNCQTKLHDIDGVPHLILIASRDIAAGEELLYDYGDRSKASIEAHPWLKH

[20] = molecular target: T3, N-lysine methyltransferase KMT5A (Homo sapiens, UniProt Q9NQR1); assay: Inhibition of SETD8 (unknown origin) using [3H]SAM and HeLa nucleosomes as substrates incubated for 1 hr
T3 sequence (Q9NQR1 whole entry): T2 sequence (whole entry)

Row | Kd [1] [µM] | Ki [2] [µM] | IC50 [12] [µM] | IC50 [13] [µM] | IC50 [14] [µM] | IC50 [15] [µM] | inhibition [19] [%] | IC50 [20] [µM] | Compound | IC50 [3] [µM] | IC50 [4] [µM] | IC50 [5] [µM] | IC50 [6] [µM] | IC50 [7] [µM] | IC50 [8] [µM] | Activity [9] | Activity [10] | Activity [11] | Activity [16] | Activity [17] | Activity [18]
1 | 0.014 | 0.035 |  |  |  |  |  |  | Cc1ccc(-c2ncc(OC[C@@H]3CCNC3)cc2-c2ccc(C#N)cc2)cc1 | 12.3 | 11.4 | 10.2 | 9.93 | 10.7 | 10.3 | Active | Active | Active |  |  | 
2 |  |  | 0.84 | 0.34 | 0.24 | 3.56 |  |  | COc1cc2c(NC3CCN(C(C)C)CC3)nc(C3CCCCC3)nc2cc1OCCCN1CCCC1 | 11.2 | 3.05 | 2.91 | 5.01 | 2.64 | 2.48 |  |  |  | Active | Active | Active
3 |  |  |  |  |  |  | 91.6 | 0.37 | Cc1ccc(NC2=CC(=O)c3sc(C)nc3C2=O)cc1 |  |  |  |  |  |  |  |  |  |  |  | 
